Measured values taken from ChEMBL document CHEMBL1221242, “Design and synthesis of HCV agents with sequential triple inhibitory potentials” (2010).

Tests used:
[1] = system: Hepatitis C virus; experiment: Antiviral activity against HCV infected in human BB7 cells assessed as inhibition of viral replication after 3 days relative to HCV-796; format: functional, Hepacivirus hominis
[2] = system: Hepatitis C virus; experiment: Inhibition of HCV 1b NS5B Cdelta21 polymerase expressed in Escherichia coli assessed as inhibition of [alpha-33P]GTP incorporation into RNA relative to HCV-796; set-up: species or system Hepatitis C virus subtype 1b
[3] = system: Hepacivirus hominis; experiment: Ratio of inhibition of HCV 1b NS5B Cdelta21 polymerase to inhibition of HCV relative to HCV-796

SMILES | Ratio [1] | Ratio [2] | Ratio [3]
CNC(=O)c1c(-c2ccc(F)cc2)oc2cc(N(CCO)S(C)(=O)=O)c(C3CC3)cc12 [NESBUVIR] | 1 | 1 | 1
CNC(=O)c1c(-c2ccc(F)cc2)oc2cc(N(CCOP(=O)(O)O)S(C)(=O)=O)c(C3CC3)cc12 | 8.9 | 0.4 | 22.2
CNC(=O)c1c(-c2ccc(F)cc2)oc2cc(N(CCOP(=O)(O)OC[C@H]3O[C@@H](n4cnc(C(N)=O)n4)[C@@H]4OC(C)(C)O[C@@H]43)S(C)(=O)=O)c(C3CC3)cc12 | 18.6 | 11.8 | 1.57
CNC(=O)c1c(-c2ccc(F)cc2)oc2cc(N(CCOC(=O)CCC(=O)OC[C@H]3O[C@@H](n4cnc(C(N)=O)n4)[C@H](O)[C@@H]3O)S(C)(=O)=O)c(C3CC3)cc12 | 6.2 | 22 | 0.28
CNC(=O)c1c(-c2ccc(F)cc2)oc2cc(N(CCOC(=O)CCC(=O)OC[C@H]3O[C@@H](n4cnc(C(N)=O)n4)[C@@H]4OC(C)(C)O[C@@H]43)S(C)(=O)=O)c(C3CC3)cc12 | 13 | 42 | 0.31
CNC(=O)c1c(-c2ccc(F)cc2)oc2cc(N(CCOP(=O)(O)OC[C@H]3O[C@@H](n4cnc(C(N)=O)n4)[C@H](O)[C@@H]3O)S(C)(=O)=O)c(C3CC3)cc12 | 7.3 | 6.2 | 1.18
